Test results: US9809583B2 (priority 2014, dated 2017)

These molecules were tested against androgen receptor (hAR) (Homo sapiens (Human), UniProt P10275) (assay: Test of transcriptional activity (hAR / ARE-Luc dual-luciferase assay in CHO cells)). Conditions: CHO cells with hAR and ARE-Luc, 24 hours; 10 nM DHT = 100%; read-out: EC50 [nM] (mean ± SE).
Assay type: cell-based
Method: In order to examine the transcriptional activity of the agonists of the present invention, the following in-vitro experiment was performed. CHO (Chinese hamster ovary) cell line (ATCC, #CCL-61) was seeded in a 96-well plate at a density of 1.5×10^4 cells/well, and cultured for 24 hours. Then, a plasmid hAR and plasmid ARE-Luc-mixed medium was added thereto. The transfected cell line was treated with 0.1˜10,000 nM of SARM derivatives, and then allowed to react for 24 hours.

Chain of androgen receptor (hAR) (P10275 whole entry): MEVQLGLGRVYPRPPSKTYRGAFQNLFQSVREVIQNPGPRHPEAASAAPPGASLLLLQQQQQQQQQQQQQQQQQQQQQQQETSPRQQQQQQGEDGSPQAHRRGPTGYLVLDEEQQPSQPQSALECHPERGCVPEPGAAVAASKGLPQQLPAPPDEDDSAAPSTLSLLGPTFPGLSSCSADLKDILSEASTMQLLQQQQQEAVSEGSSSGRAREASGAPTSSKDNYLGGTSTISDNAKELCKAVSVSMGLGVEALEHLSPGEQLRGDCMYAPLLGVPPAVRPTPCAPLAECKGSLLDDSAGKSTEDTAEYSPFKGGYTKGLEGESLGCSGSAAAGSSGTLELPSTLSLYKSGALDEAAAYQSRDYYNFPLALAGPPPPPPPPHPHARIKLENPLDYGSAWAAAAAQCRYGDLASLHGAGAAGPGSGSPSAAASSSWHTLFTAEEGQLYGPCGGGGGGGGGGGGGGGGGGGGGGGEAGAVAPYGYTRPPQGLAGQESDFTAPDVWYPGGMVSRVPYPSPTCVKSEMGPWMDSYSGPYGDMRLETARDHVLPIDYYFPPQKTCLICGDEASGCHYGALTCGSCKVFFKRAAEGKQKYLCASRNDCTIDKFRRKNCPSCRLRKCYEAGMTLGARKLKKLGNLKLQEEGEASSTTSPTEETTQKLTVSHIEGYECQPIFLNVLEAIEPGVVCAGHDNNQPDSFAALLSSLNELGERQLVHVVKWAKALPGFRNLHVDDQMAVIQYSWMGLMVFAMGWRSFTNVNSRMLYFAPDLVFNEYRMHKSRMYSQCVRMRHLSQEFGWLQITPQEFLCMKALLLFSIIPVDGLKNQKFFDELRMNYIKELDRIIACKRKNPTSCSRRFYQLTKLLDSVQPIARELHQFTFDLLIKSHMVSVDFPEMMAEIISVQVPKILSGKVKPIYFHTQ

Molecule | EC50
(2R,5S)-N-(4-acetamidophenyl)-3-(3-methyl-4-nitrophenyl)-2-(trifluoromethyl)oxazolidine-5-carboxamide [Example 112] | 10.1 nM
(2R,5S)-N-(3-chloro-4-cyano-2-fluorophenyl)-3-(4-cyano-3-(trifluoromethyl)phenyl)-2-(trifluoromethyl)oxazolidine-5-carboxamide [Example 130] | 10.2 nM
(2R,5S)-3-(3-chloro-4-cyanophenyl)-N-(6-cyanopyridin-3-yl)-2-(trifluoromethyl)oxazolidine-5-carboxamide [Example 120] | 11.1 nM
Cc1cc(N2C[C@@H](COc3ccc(C#N)cc3)O[C@H]2C(F)(F)F)ccc1[N+](=O)[O-] [Example 82, 4-(((2S,5S)-3-(3-methyl-4-nitrophenyl)-2-(trifluoromethyl)oxazolidin-5-yl)methoxy)benzonitrile] | 21.1 nM

Same assay, conditions: EC50 [nM] (mean ± SE), CHO cells with hAR and ARE-Luc, 24 hours; 10 nM DHT = 100%

Molecule | EC50
CC(=O)Nc1ccc(NC(=O)[C@@H]2CN(c3ccc(C#N)c(C(F)(F)F)c3)[C@@H](C(F)(F)F)O2)c(F)c1 [Example 106, (2R,5S)-N-(4-acetamido-2-fluorophenyl)-3-(4-cyano-3-(trifluoromethyl)phenyl)-2-(trifluoromethyl)oxazolidine-5-carboxamide] | 154 nM
N#Cc1ccc(N2C[C@@H](COc3ccncc3)O[C@@H]2C(F)(F)F)cc1Cl [Example 72, 2-chloro-4-((2R,5S)-5-((pyridin-4-yloxy)methyl)-2-(trifluoromethyl)oxazolidin-3-yl)benzonitrile] | 1.03 nM
N#Cc1ccc(N2C[C@@H](C(=O)Nc3ccc(O)cc3)O[C@@H]2C(F)(F)F)cc1C(F)(F)F [Example 148, (2R,5S)-3-(4-cyano-3-(trifluoromethyl)phenyl)-N-(4-hydroxyphenyl)-2-(trifluoromethyl)oxazolidine-5-carboxamide] | 13.5 nM
CC(C)OC(=O)Nc1ccc(OC[C@@H]2CN(c3ccc(C#N)c(C(F)(F)F)c3)[C@@H](C(F)(F)F)O2)cc1 [Example 42, isopropyl (4-(((2R,5S)-3-(4-cyano-3-(trifluoromethyl)phenyl)-2-(trifluoromethyl)oxazolidin-5-yl)methoxy)phenyl)carbamate] | 514 nM
N#Cc1ccc(N2C[C@@H](COc3ccc(CO)cc3)O[C@@H]2C(F)(F)F)cc1C(F)(F)F [Example 67, 4-((2R,5S)-5-((4-(hydroxymethyl)phenoxy)methyl)-2-(trifluoromethyl)oxazolidin-3-yl)-2-(trifluoromethyl)benzonitrile] | 3.93 nM
N#Cc1ccc(N2C[C@@H](COc3ccc(NC(N)=O)cc3)O[C@@H]2C(F)(F)F)cc1C(F)(F)F [Example 15, 1-(4-(((2R,5S)-3-(4-cyano-3-(trifluoromethyl)phenyl)-2-(trifluoromethyl)oxazolidin-5-yl)methoxy)phenyl)urea] | 15.7 nM
Cc1c(N2C[C@@H](COc3ccc(/C=N/O)cc3)O[C@@H]2C(F)(F)F)ccc(C#N)c1Cl [Example 78, 2-chloro-4-((2R,5S)-5-((4-((E)-(hydroxyimino)methyl)phenoxy)methyl)-2-(trifluoromethyl)oxazolidin-3-yl)-3-methylbenzonitrile] | 4.91 nM
N#Cc1ccc(N2C[C@@H](COc3ccc(N)cc3)O[C@@H]2C(F)(F)F)cc1C(F)(F)F [Example 14, 4-((2R,5S)-5-((4-aminophenoxy)methyl)-2-(trifluoromethyl)oxazolidin-3-yl)-2-(trifluoromethyl)benzonitrile] | 111 nM
N#Cc1ccc(N2C[C@@H](COc3ccc(NC(=O)CN)cc3)O[C@@H]2C(F)(F)F)cc1C(F)(F)F [Example 50, 2-amino-N-(4-(((2R,5S)-3-(4-cyano-3-(trifluoromethyl)phenyl)-2-(trifluoromethyl)oxazolidin-5-yl)methoxy)phenyl)acetamide 2,2,2-trifluoroacetate] | 15.6 nM
CS(=O)(=O)Nc1ccc(OC[C@@H]2CN(c3ccc(C#N)c(C(F)(F)F)c3)[C@@H](C(F)(F)F)O2)cc1 [Example 39, N-(4-(((2R,5S)-3-(4-cyano-3-(trifluoromethyl)phenyl)-2-(trifluoromethyl)oxazolidin-5-yl)methoxy)phenyl)methanesulfonamide] | 42.6 nM
N#Cc1ccc(NC(=O)[C@@H]2CN(c3ccc(C#N)c(C(F)(F)F)c3)[C@@H](C(F)(F)F)O2)c(F)c1 [Example 139, (2R,5S)-N-(4-cyano-2-fluorophenyl)-3-(4-cyano-3-(trifluoromethyl)phenyl)-2-(trifluoromethyl)oxazolidine-5-carboxamide] | 2.74 nM
N#Cc1ccc(NC(=O)[C@@H]2CN(c3ccc(C#N)c(C(F)(F)F)c3)[C@@H](C(F)(F)F)O2)cn1 [Example 108, (2R,5S)-3-(4-cyano-3-(trifluoromethyl)phenyl)-N-(6-cyanopyridin-3-yl)-2-(trifluoromethyl)oxazolidine-5-carboxamide] | 17 nM
CC(=O)NC1CCN(C(=O)[C@@H]2CN(c3ccc(C#N)c(C(F)(F)F)c3)[C@@H](C(F)(F)F)O2)CC1 [Example 176] | 198 nM
N#Cc1ccc(N2C[C@@H](COc3ccccc3)O[C@@H]2C(F)(F)F)cc1C(F)(F)F [Example 58, 4-((2R,5S)-5-(phenoxymethyl)-2-(trifluoromethyl)oxazolidin-3-yl)-2-(trifluoromethyl)benzonitrile] | 107 nM
N#Cc1ccc(N2C[C@@H](C(=O)Nc3ccc([N+](=O)[O-])cc3Cl)O[C@@H]2C(F)(F)F)cc1C(F)(F)F [Example 151, (2R,5S)-N-(2-chloro-4-nitrophenyl)-3-(4-cyano-3-(trifluoromethyl)phenyl)-2-(trifluoromethyl)oxazolidine-5-carboxamide] | 43.7 nM
COC(=O)Nc1ccc(NC(=O)[C@@H]2CN(c3ccc(C#N)c(C(F)(F)F)c3)[C@@H](C(F)(F)F)O2)c(Cl)c1 [Example 154, methyl(3-chloro-4-((2R,5S)-3-(4-cyano-3-(trifluoromethyl)phenyl)-2-(trifluoromethyl)oxazolidine-5-carboxamido)phenyl)carbamate] | 27.8 nM
COC(=O)Nc1ccc(NC(=O)[C@@H]2CN(c3ccc(C#N)c(C(F)(F)F)c3)[C@@H](C(F)(F)F)O2)cc1 [Example 157, methyl(4-((2R,5S)-3-(4-cyano-3-(trifluoromethyl)phenyl)-2-(trifluoromethyl)oxazolidine-5-carboxamido)phenyl)carbamate] | 231 nM
CCC(=O)Nc1ccc(NC(=O)[C@@H]2CN(c3ccc(C#N)c(C(F)(F)F)c3)[C@@H](C(F)(F)F)O2)cc1 [Example 158, (2R,5S)-3-(4-cyano-3-(trifluoromethyl)phenyl)-N-(4-propionamidophenyl)-2-(trifluoromethyl)oxazolidine-5-carboxamide] | 12.5 nM
Cc1c(N2C[C@@H](COc3ccc(C#N)nc3)O[C@@H]2C(F)(F)F)ccc(C#N)c1Cl [Example 77, 5-(((2R,5S)-3-(3-chloro-4-cyano-2-methylphenyl)-2-(trifluoromethyl)oxazolidin-5-yl)methoxy)picolinonitrile] | 10.6 nM
N#Cc1ccc(N2C[C@@H](COc3ccc(NC(=O)CO)cc3)O[C@@H]2C(F)(F)F)cc1C(F)(F)F [Example 94, N-(4-(((2R,5S)-3-(4-cyano-3-(trifluoromethyl)phenyl)-2-(trifluoromethyl)oxazolidin-5-yl)methoxy)phenyl)-2-hydroxyacetamide] | 4.12 nM
